Test results: patent US11498909B2, “Compound acting as antibiotics” (KBP BIOSCIENCES CO., LTD., priority 2018, dated 2022)
≈ marks a conversion by molar mass, not a printed value. Read-outs that look alike come from different tables or passages of the source.

Tests used:
Pseudomonas aeruginosa = assay: In vitro antibacterial activity, agar dilution MIC (Experiment 1); type: cell-based
Description: Tested strains: all the clinically separated strains below were purchased from public facilities.
Escherichia coli ATCC25922, Pseudomonas aeruginosa ATCC27853, Klebsiella pneumoniae ATCC700603, and the like.
Tested Samples: Imipenem, Ceftazidime: Commercial Products, the Following Experiments were Carried Out According to the Content of an Effective Ingredient in Each Commercial Product;
The compounds of the present invention, their chemical names, and preparation methods are shown in the preparation example of each compound.
Experiment method: Agar dilution method, refer to National Committee for Clinical Laboratory Standards. 2006. Methods for Dilution Antimicrobial Susceptibility Tests for Bacteria That Grow Aerobically; Approved Standard—Seventh Edition M7-A7, Vol 26, No. 2, 2006, to determine the MIC of the compound. MIC represents the minimum inhibitory concentration.

[1] = Pharmacokinetics (PK) determination in SD rats (Experiment 4); type: in vivo; details: plasma; for Cl_obs / Vz_obs / t1/2z / λ_z: IV 2 mg/kg; for AUC(0-t) / AUC(0-inf): Sprague-Dawley (SD), rat, iv, 2 mg/kg; for AUC(0-inf): read-out: AUCINF_obs
Description: The compound of the present invention, self-prepared and dissolved in a suitable solvent.
Instrument and equipment: API4000 LC-MS/MS
Chromatographic column: Waters XBridge C18(2.1×50 mm, […])
Rat blood collection: Animals were fixed. The animal's tail was heated with a water bathtub 10 minutes before each time point. About 200 μL of the blood was collected through the caudal vein. After the blood collection, the blood was placed in an anticoagulation tube containing heparin sodium. The blood samples were centrifuged at 8000 rpm for 6 minutes at 4° C. to obtain plasma samples. The plasma must be prepared within 30 minutes after the blood collection. The plasma was stored in a refrigerator at −80° C. before the test.
(1) Test samples were removed from the refrigerator (−80° C.), naturally thawed at room temperature, and then vortexed for 5 minutes;
(2) 20 μL sample was precisely pipetted to a 1.5 mL centrifuge tube;
(3) 200 μL of the internal standard solution was added;
(4) The mixture was vortexed for 5 minutes and centrifuged for 5 minutes (12000 revolutions per minute);
(5) 100 μL of the supernate was precisely pipetted, 100 μL of water was added, the mixture was vortexed for 5 minutes, and the sample was sent to LC-MS/MS for analysis.
The results of the concentrations of the test samples (plasma samples) were output with Analyst 1.6.1 of AB Corporation. The meaning value, the standard deviation, the coefficient of variation, and other parameters (not necessary to calculate the parameter that can be directly output from Analyst 1.6.1) were calculated with Microsoft Excel, and the PK parameter is calculated with Pharsight Phoenix 6.1 software.

[2] = agar dilution (Table 3), read-out: MIC90
[3] = agar dilution (Table 3), read-out: MIC50

Question: With C[C@@H](O)[C@H](NC(=O)c1ccc(C#CC#Cc2ccc(C(N)=O)o2)cc1)C(=O)NO [Compound 27] as the compound, how does the MIC90 (Pseudomonas aeruginosa; [2]) read?
Answer: Its MIC90 is 4 µg/mL (≈ 10.1 µM).

Question: Which MIC50 (Pseudomonas aeruginosa; [3]) does the source give for C[C@@H](O)[C@H](NC(=O)c1ccc(C#CC#Cc2ccc(C(=O)N(C)C)o2)cc1)C(=O)NO [Compound 29] here?
Answer: The MIC50 was 1 µg/mL (≈ 2.36 µM).

Question: What about the MIC90 (Pseudomonas aeruginosa; [2]) of the same compound?
Answer: Its MIC90 is 4 µg/mL (≈ 9.45 µM).

Question: What does the source list for C[C@@H](O)[C@H](NC(=O)c1ccc(/C=C/C=C/c2ccc(CO)o2)nc1)C(=O)NO [Compound 32]?
Answer: Cl_obs [1]: 5.80 ± 0.53 L/h/kg; Vz_obs [1]: 4.24 ± 1.65 L/kg; t1/2z [1]: 30.4 ± 10.8 min; λ_z [1]: 1.48 ± 0.46 h⁻¹; AUC(0-t) [1]: 344 ± 33.7 ng·h/mL; AUC(0-inf) [1]: 347 ± 32.7 ng·h/mL

Question: What does the source list for C[C@@H](O)[C@H](NC(=O)c1ccc(C#CC#Cc2ccnn2C)cc1)C(=O)NO [Compound 34, N-((2S,3R)-3-hydroxy-1-(hydroxamino)-1-oxobutan-2-yl)-4-((1-methyl-1H-pyrazol-5-yl)buta-1,3-diynyl)benzamide]?
Answer: MIC50 (Pseudomonas aeruginosa; [3]): 4 µg/mL (≈ 10.9 µM); MIC90 (Pseudomonas aeruginosa; [2]): > 16 µg/mL

Question: With Cn1nccc1-c1ccc(C#Cc2ccc(C(=O)N[C@H](C(=O)NO)C(C)(C)N)cc2)cc1 [Compound 35, (S)—N-(3-amino-1-(hydroxyamino)-3-methyl-1-oxobutan-2-yl)-4-((4-(1-methyl-1H-pyrazol-5-yl)phenyl)ethynyl)benzamide] as the compound, how does the MIC50 (Pseudomonas aeruginosa) read?
Answer: The MIC50 was 2 µg/mL (≈ 4.64 µM).

Question: And the MIC90 (Pseudomonas aeruginosa)?
Answer: Its MIC90 is 16 µg/mL (≈ 37.1 µM).

Question: What does the source list for C[C@@H](O)[C@H](NC(=O)c1ccc(C#Cc2ccc(-c3ccnn3C)cc2)cc1)C(=O)NO [Compound 36, N-((2S,3R)-3-hydroxy-1-(hydroxyamino)-1-oxobutan-2-yl)-4-((4-(1-methyl-1H-pyrazol-5-yl)phenyl)ethynyl)benzamide]?
Answer: MIC50 (Pseudomonas aeruginosa; [3]): 2 µg/mL (≈ 4.78 µM); MIC90 (Pseudomonas aeruginosa; [2]): > 16 µg/mL

Question: For Cn1nccc1-c1ccc(C#Cc2ccc(-c3ccn(CCC(C)(C(=O)NO)S(C)(=O)=O)c(=O)c3)cc2)cc1 (stereo not shown) [Compound 38, N-hydroxy-2-methyl-4-(4-(4-((4-(1-methyl-1H-pyrazol-5-yl)phenyl)ethynyl)phenyl)-2-oxopyridin-1(2H)-yl)-2-(methylsulfonyl)butanamide], which Cl_obs [1] is on record?
Answer: Its Cl_obs is 1.01 ± 0.09 L/h/kg.

Question: And the Vz_obs [1]?
Answer: Its Vz_obs is 1.81 ± 0.17 L/kg.

Question: And the t1/2z [1]?
Answer: Its t1/2z is 75 ± 5.4 min.

Question: And the λ_z [1]?
Answer: Its λ_z is 0.56 ± 0.04 h⁻¹.

Question: What about the AUC(0-t) [1] of the same compound?
Answer: Its AUC(0-t) is 1940 ± 168 ng·h/mL.

Question: What about the AUC(0-inf) [1] of the same compound?
Answer: Its AUC(0-inf) is 1990 ± 176 ng·h/mL.

Question: Which results are given for C[C@@H](O)[C@H](NC(=O)c1ccc(C#Cc2ccc(-c3ccnn3C)nc2)cc1)C(=O)NO [Compound 40, N-((2S,3R)-3-hydroxy-1-(hydroxyamino)-1-oxobutan-2-yl)-4-((6-(1-methyl-1H-pyrazol-5-yl)pyridin-3-yl)ethynyl)benzamide]?
Answer: MIC50 (Pseudomonas aeruginosa; [3]): 2 µg/mL (≈ 4.77 µM); MIC90 (Pseudomonas aeruginosa; [2]): 1 µg/mL (≈ 2.38 µM)

Question: For CC(CCn1ccc(-c2ccc(C#Cc3ccc(CN4CCOCC4)o3)cc2)cc1=O)(C(=O)NO)S(C)(=O)=O (stereo not shown) [Compound 45, N-hydroxy-2-methyl-2-(methylsulfonyl)-4-(4-(4-((5-(morpholinomethyl)furan-2-yl)ethynyl)phenyl)-2-oxopyridin-1(2H)-yl)butanamide], which MIC50 (Pseudomonas aeruginosa; [3]) is on record?
Answer: The MIC50 was 4 µg/mL (≈ 7.22 µM).

Question: Which MIC50 (Pseudomonas aeruginosa; [3]) does the source give for C[C@@](CCn1ccc(-c2ccc(C#Cc3ccc(CO)o3)cc2)cc1=O)(C(=O)NO)S(C)(=O)=O [Compound 46] here?
Answer: Its MIC50 is 1 µg/mL (≈ 2.06 µM).

Question: What about the MIC90 (Pseudomonas aeruginosa; [2]) of the same compound?
Answer: Its MIC90 is 8 µg/mL (≈ 16.5 µM).

Question: For CC(CCn1ccc(-c2ccc(C#CC#Cc3ccc(CO)o3)cc2)cc1=O)(C(=O)NO)S(C)(=O)=O (stereo not shown) [Compound 47], which MIC50 (Pseudomonas aeruginosa; [3]) is on record?
Answer: The MIC50 was 4 µg/mL (≈ 7.87 µM).

Question: What about the MIC90 (Pseudomonas aeruginosa; [2]) of the same compound?
Answer: The MIC90 was over 16 µg/mL.

Question: With COCc1ccc(C#Cc2ccc(-c3ccn(CCC(C)(C(=O)NO)S(C)(=O)=O)c(=O)c3)cc2)o1 (stereo not shown) [Compound 48] as the compound, how does the MIC50 (Pseudomonas aeruginosa; [3]) read?
Answer: The MIC50 was 2 µg/mL (≈ 4.01 µM).

Question: With “N-((2S,3R)-3-hydroxy-1-(hydroxyamino)-1-oxobutan-2-yl)-4-((5-((2-(2-hydroxyethoxy)ethylamino)methyl)furan-2-yl)buta-1,3-diynyl)benzamide [Compound 19]” as the compound, how does the MIC50 (Pseudomonas aeruginosa; agar dilution (Table 3)) read?
Answer: The MIC50 was 2 µg/mL.

Question: What about the MIC90 (Pseudomonas aeruginosa; agar dilution (Table 3)) of the same compound?
Answer: Its MIC90 is 8 µg/mL.
